Reference: ChEMBL document CHEMBL1154875, “Pharmacophoric model building for antitubercular activity of the individual Schiff bases of small combinatorial library” (2010)

Tested on: Mycobacterium tuberculosis
Assay: Antimicrobial activity against Mycobacterium tuberculosis H37Rv ATCC 27294 at 6.25 ug/ml after 24 hrs by Microplate Almar blue assay
Assay type: functional
Details: H37Rv ATCC 27294, 24 h

Point of comparison: `C/C(=N/NC(=O)c1ccco1)c1ccc([N+](=O)[O-])cc1`, inhibition at 6.25 µg/mL 62%. Against it:
- O=C1Nc2ccccc2/C1=N\NC(=O)c1cc(/C=C\c2ccco2)on1 — lower, 39%
- O=C1Nc2ccccc2/C1=N\NC(=O)c1ccco1 — lower, 41%
- C/C(=N\NC(=O)c1ccncc1)c1ccc([N+](=O)[O-])cc1 — higher, 99%
- O=C1Nc2ccccc2/C1=N\NC(=O)c1cccnc1 — lower, 57%
- O=C(N/N=C/c1ccc([N+](=O)[O-])cc1)c1cc(/C=C\c2ccco2)on1 — lower, 37%
- CC(=O)OC(O/C(C)=N/NC(=O)c1ccco1)c1ccc([N+](=O)[O-])o1 (centres undefined) — higher, 99%
- CC(=O)OC(O/C(C)=N/NC(=O)c1ccncc1)c1ccc([N+](=O)[O-])o1 (centres undefined) — higher, 84%
- CC(=O)OC(O/C(C)=N/NC(=O)c1cc(/C=C\c2ccco2)on1)c1ccc([N+](=O)[O-])o1 (centres undefined) — lower, 59%
- O=C(N/N=C/c1ccccc1)c1ccncc1 [N'-BENZYLIDENE ISONICOTINOHYDRAZIDE] — lower, 51%
- O=C(N/N=C/c1ccc([N+](=O)[O-])cc1)c1ccco1 — lower, 35%
- O=C(NN/C=C/c1ccccc1)c1cc(/C=C\c2ccco2)on1 — higher, 80%
- C/C(=N/NC(=O)c1cc(/C=C\c2ccco2)on1)c1ccc([N+](=O)[O-])cc1 — higher, 66%
- O=C(NN/C=C/c1ccccc1)c1ccncc1 — lower, 54%
